Test [1] is described as follows: IGROV1 cell killing – plate reader, dry powder samples, PAX8 inhibitor project, dose response (AID 743043). Conditions: IGROV-1. The class given is functional, cell-based.
A short description of test [2]: OVCAR-3 cell viability loss – plate reader, dry powder samples, PAX8 inhibitor project, dose response (AID 743044). The class given is functional, cell-based.
For test [3], the target named is Paired box protein Pax-8 (Homo sapiens, UniProt Q06710). The test can be described thus: PAX8 transcriptional activity inhibition in RMG-I – RMG-I cells, luciferase, cherry-pick, dose response (AID 687027).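 Also: luciferase reporter driven by Pax8 target thyroperoxidase promoter measured by SteadyGlo luminescence.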 Format: functional, cell-based.
The nature of test [4]: HIV-1 Vif–A3G interaction blockers – biochemical, TR-FRET, GST-Vif 1-94, biotin-A3G peptide, dose response retest, primary screen (AID 1117319).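 Also: TR-FRET signal of purified GST-Vif binding a biotinylated A3G peptide; inhibitors lower the FRET signal by blocking Vif and A3G binding.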 Format: functional. (In general: In TR-FRET formats the signal depends on donor and acceptor labels being close together.)
The target in test [5] is Eukaryotic translation initiation factor 4E (Mus musculus, UniProt P63073). Description: blockers of eIF4G binding by eIF4E – biochemical, TR-FRET, dose response (AID 855).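 Also: potency for disrupting eIF4E binding to eIF4GI seen as loss of FRET.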 The class given is functional.
Test [6] is described as follows: NIH-3T3 fibroblast cytotoxicity, dose response, cytotoxicity control, cell-based, fluorescence, Alamar Blue, secondary assay (AID 2327).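 Also: NIH-3T3 mouse fibroblasts cultured with fluconazole at 8 µg/mL.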 Format: functional. A general note: Resazurin is reduced to fluorescent resorufin, in cell work by metabolically active cells.
Test [7] addresses T1, Adenosylmethionine-8-amino-7-oxononanoate aminotransferase (Mycobacterium tuberculosis, UniProt P9WQ81).
T1 sequence (P9WQ81 whole entry): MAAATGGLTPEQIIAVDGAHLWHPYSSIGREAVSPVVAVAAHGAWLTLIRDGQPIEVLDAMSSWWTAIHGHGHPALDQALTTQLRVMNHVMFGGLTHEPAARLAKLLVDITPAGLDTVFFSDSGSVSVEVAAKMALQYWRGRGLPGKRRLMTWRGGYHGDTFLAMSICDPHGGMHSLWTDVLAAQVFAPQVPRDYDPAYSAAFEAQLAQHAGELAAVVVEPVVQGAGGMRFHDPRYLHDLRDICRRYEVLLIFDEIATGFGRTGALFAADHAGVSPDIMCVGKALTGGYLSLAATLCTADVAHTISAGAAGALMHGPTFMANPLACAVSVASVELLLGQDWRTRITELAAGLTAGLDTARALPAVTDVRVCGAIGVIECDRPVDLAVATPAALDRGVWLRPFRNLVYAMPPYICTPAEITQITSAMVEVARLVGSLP
Description: Mycobacterium tuberculosis BioA enzyme inhibitor Measured in Biochemical System Using Plate Reader - 2163-02_Inhibitor_Dose_CherryPick_Activity. Format: functional, Mycobacterium tuberculosis UT205.

Test [8] is described as follows: fluconazole-exposed Candida albicans growth modulators – fluorescence, retest, confirmation (AID 2467). The class given is functional, cell-based.
The target in test [9] is Protein-tyrosine kinase 2-beta (Homo sapiens, UniProt Q14289).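 Also: potency of inhibitors of PYK2 kinase phosphorylation of poly-GT substrate.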
For test [10], the target named is T2, Trace amine-associated receptor 1 (Homo sapiens, UniProt Q96RJ0).
T2 sequence (Q96RJ0 whole entry): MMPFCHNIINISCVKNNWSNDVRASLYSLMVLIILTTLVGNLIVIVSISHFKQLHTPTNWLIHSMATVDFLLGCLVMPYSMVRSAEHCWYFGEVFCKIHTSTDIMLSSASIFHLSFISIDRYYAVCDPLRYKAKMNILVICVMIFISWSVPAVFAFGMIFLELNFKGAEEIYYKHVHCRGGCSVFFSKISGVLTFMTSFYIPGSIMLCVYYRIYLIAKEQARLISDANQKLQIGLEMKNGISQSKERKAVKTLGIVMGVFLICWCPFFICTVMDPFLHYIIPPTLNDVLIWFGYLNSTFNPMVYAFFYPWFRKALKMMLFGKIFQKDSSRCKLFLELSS
Description: Fluorescence-based cell-based high throughput dose response assay to identify agonists of the human trace amine associated receptor 1 (TAAR1). Format: functional.

Test [11] has as its target T2, Trace amine-associated receptor 1. The test can be described thus: Counterscreen for agonists of the human trace amine associated receptor 1 (hTAAR1): Fluorescence-based cell-based high throughput dose response assay to identify hTAAR1 agonist that also desensitize TAAR1 receptor response. The class given is functional. In general terms: Counterscreens check selectivity or assay interference.

Test [12] is described as follows: cells. Format: functional, cell-based.
A short description of test [13]: cells. Format: functional, cell-based. This is another data set of the same source.
In test [14] the test system is HeLa. The test can be described thus: ATP-based viability loss in HeLa cells – cell-based, CellTiter-Glo luminescence, cherry-pick samples, cytotoxicity control for MITF activator project, dose response (AID 540259). Conditions: Homo sapiens. Format: functional.
Test [15] addresses Peroxisome proliferator-activated receptor gamma/Nuclear receptor coactivator 1 (Homo sapiens, UniProt P37231). The class given is functional.
Test [16] addresses Peroxisome proliferator-activated receptor gamma/Nuclear receptor coactivator 3 (Homo sapiens, UniProt P37231). The class given is functional.
In test [17] the target is Peroxisome proliferator-activated receptor gamma/Nuclear receptor coactivator 2 (Homo sapiens, UniProt P37231). The class given is functional.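 Also: agonist potency for raising coactivator recruitment to the receptor.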
Test [18] concerns the target Cytochrome P450 2C9 (Homo sapiens, UniProt P11712).
Test [19] in a line: cells. The class given is functional.
Test [20] in a line: Vero E6 cell cytotoxicity, dose response, cytotoxicity control for non-replicating M. tuberculosis project, secondary assay (AID 492998). Conditions: Vero C1008. The class given is functional, VeroE6.
Test [21] has as its system Streptococcus. Description: GAS UMAA2166 growth inhibition – luminescence, BacTiterGlo, counter-screen for streptokinase expression inhibitor project, dose response (AID 1915).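 Also: potency for reduction of bacterial viability or growth.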 The class given is functional, organism-based.
A short description of test [22]: THP-1 cell cytotoxicity, dose response, cytotoxicity control for non-replicating M. tuberculosis project (AID 489025). The class given is functional.
The subject of test [23] is Streptococcus sp. 'group A'. Description: Streptococcus pyogenes SK(-)GAS viability under kanamycin – luminescence, BacTiterGlo, confirmation, counter-screen for streptokinase expression inhibitor project, dose response (AID 1900). Format: functional, organism-based.
Test [24] can be described thus: OVCAR8 cell viability loss – plate reader, dry powder samples, PAX8 project, dose response (AID 743197). Format: functional, cell-based. Conditions: OVCAR-8.
Test [25] has as its target Induced myeloid leukemia cell differentiation protein Mcl-1 (Homo sapiens, UniProt Q07820). The class given is functional.
Test [26] deals with T3, Voltage-gated N-type calcium channel alpha-1B subunit/Amyloid beta A4 precursor protein-binding family A member 1 (Homo sapiens, UniProt Q00975+Q02410). Format: protein assay.
Test [27] addresses T3, Voltage-gated N-type calcium channel alpha-1B subunit/Amyloid beta A4 precursor protein-binding family A member 1. Format: protein assay. This is another data set of the same source.
Test [28] deals with T4, Long-chain-fatty-acid--AMP ligase FadD28 (Mycobacterium tuberculosis, UniProt P9WQ59).
T4 sequence (P9WQ59 whole entry): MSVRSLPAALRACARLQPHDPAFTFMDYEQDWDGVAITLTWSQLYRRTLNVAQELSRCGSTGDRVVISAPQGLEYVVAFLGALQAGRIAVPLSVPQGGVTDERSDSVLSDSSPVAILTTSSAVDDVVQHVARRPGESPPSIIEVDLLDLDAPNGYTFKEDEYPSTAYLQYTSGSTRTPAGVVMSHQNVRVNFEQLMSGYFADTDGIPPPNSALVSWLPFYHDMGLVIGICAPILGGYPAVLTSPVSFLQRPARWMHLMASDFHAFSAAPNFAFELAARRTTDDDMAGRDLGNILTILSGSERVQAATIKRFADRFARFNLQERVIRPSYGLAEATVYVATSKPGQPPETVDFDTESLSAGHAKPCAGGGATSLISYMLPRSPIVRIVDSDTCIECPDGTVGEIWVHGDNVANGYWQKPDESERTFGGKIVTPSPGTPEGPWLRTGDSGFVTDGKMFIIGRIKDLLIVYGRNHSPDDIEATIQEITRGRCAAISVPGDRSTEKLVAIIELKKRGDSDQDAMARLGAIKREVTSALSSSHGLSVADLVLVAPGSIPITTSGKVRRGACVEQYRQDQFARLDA
Description: Fluorescence polarization aasay to screen for inhibitors that compete for the binding of FadD28 to a bisubstrate Measured in Biochemical System Using Plate Reader - 2147-01_Inhibitor_Dose_CherryPick_Activity. The class given is functional, Mycobacterium tuberculosis H37Rv.

For test [29], the target named is Voltage-dependent T-type calcium channel subunit alpha-1H (Homo sapiens, UniProt O95180). Format: functional.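 Also: channel activity triggered by adding a high calcium stimulation buffer.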
Test [30] has as its target Nonstructural protein 1 (Influenza A virus, UniProt Q194T2). The class given is functional, Influenza A virus (A/California/07/2009(H1N1)).

Active and inactive are the calls of the source. Where only a bound is given, the exact number is not on record here.

Sequence of Eukaryotic translation initiation factor 4E (P63073 whole entry): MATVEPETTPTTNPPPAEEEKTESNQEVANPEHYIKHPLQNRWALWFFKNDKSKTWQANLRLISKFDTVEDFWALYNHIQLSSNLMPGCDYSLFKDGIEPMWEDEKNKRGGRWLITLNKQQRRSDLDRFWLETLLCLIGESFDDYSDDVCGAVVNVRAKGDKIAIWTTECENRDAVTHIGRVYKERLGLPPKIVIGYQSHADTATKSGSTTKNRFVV
Sequence of Protein-tyrosine kinase 2-beta (Q14289 whole entry): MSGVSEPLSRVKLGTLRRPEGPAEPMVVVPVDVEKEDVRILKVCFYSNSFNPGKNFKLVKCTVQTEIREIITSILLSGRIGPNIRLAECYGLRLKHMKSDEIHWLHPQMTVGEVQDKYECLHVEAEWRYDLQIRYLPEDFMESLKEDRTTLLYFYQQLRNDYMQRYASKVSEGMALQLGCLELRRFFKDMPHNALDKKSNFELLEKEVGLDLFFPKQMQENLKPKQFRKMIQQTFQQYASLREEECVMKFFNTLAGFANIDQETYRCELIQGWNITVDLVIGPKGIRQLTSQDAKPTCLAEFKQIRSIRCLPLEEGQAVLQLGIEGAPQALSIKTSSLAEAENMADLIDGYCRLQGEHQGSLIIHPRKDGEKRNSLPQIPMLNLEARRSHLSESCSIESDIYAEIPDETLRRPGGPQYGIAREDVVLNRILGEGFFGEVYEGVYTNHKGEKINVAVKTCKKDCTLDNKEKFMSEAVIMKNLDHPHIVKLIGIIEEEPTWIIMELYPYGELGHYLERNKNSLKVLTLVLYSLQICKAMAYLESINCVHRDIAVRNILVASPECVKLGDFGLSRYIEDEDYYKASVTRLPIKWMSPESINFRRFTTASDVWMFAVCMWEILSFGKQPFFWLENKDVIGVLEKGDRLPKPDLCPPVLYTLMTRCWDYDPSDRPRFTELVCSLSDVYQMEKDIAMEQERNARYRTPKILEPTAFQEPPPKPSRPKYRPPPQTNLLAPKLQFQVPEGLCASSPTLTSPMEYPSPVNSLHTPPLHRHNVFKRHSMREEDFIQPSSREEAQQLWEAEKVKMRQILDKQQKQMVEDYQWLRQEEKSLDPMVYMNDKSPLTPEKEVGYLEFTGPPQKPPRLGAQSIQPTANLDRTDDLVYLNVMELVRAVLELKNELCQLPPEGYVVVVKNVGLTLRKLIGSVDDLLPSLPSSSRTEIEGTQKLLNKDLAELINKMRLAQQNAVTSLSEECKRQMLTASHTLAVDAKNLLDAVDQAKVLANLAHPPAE
Sequence of Paired box protein Pax-8 (Q06710 whole entry): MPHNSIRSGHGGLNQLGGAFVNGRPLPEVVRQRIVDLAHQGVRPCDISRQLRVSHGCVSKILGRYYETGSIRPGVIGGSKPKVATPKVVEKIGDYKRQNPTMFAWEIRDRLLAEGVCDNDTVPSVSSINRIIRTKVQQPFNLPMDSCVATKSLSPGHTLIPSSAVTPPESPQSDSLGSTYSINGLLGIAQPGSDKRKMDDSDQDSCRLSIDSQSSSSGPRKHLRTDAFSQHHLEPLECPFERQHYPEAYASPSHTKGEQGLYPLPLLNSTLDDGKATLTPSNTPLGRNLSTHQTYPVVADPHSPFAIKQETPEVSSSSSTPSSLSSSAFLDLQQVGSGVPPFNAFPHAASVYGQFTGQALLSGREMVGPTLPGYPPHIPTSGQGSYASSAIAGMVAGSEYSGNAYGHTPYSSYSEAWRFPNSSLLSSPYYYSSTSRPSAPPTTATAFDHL
Sequence of Peroxisome proliferator-activated receptor gamma/Nuclear receptor coactivator 2 (P37231 whole entry): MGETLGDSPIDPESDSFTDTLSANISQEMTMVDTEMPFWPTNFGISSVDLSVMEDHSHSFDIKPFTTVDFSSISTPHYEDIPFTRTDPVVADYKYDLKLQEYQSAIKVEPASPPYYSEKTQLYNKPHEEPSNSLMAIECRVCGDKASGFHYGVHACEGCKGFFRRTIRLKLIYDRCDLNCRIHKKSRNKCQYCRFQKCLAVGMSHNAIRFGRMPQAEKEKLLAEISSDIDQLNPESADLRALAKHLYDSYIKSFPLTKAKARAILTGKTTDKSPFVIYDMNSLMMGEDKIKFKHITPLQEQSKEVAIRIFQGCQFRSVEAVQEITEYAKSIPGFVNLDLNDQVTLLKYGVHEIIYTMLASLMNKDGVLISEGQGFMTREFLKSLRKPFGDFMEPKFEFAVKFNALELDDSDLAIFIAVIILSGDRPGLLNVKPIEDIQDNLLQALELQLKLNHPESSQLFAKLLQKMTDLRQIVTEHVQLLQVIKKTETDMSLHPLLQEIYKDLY
Sequence of Peroxisome proliferator-activated receptor gamma/Nuclear receptor coactivator 2 (Q15596 whole entry, further chain): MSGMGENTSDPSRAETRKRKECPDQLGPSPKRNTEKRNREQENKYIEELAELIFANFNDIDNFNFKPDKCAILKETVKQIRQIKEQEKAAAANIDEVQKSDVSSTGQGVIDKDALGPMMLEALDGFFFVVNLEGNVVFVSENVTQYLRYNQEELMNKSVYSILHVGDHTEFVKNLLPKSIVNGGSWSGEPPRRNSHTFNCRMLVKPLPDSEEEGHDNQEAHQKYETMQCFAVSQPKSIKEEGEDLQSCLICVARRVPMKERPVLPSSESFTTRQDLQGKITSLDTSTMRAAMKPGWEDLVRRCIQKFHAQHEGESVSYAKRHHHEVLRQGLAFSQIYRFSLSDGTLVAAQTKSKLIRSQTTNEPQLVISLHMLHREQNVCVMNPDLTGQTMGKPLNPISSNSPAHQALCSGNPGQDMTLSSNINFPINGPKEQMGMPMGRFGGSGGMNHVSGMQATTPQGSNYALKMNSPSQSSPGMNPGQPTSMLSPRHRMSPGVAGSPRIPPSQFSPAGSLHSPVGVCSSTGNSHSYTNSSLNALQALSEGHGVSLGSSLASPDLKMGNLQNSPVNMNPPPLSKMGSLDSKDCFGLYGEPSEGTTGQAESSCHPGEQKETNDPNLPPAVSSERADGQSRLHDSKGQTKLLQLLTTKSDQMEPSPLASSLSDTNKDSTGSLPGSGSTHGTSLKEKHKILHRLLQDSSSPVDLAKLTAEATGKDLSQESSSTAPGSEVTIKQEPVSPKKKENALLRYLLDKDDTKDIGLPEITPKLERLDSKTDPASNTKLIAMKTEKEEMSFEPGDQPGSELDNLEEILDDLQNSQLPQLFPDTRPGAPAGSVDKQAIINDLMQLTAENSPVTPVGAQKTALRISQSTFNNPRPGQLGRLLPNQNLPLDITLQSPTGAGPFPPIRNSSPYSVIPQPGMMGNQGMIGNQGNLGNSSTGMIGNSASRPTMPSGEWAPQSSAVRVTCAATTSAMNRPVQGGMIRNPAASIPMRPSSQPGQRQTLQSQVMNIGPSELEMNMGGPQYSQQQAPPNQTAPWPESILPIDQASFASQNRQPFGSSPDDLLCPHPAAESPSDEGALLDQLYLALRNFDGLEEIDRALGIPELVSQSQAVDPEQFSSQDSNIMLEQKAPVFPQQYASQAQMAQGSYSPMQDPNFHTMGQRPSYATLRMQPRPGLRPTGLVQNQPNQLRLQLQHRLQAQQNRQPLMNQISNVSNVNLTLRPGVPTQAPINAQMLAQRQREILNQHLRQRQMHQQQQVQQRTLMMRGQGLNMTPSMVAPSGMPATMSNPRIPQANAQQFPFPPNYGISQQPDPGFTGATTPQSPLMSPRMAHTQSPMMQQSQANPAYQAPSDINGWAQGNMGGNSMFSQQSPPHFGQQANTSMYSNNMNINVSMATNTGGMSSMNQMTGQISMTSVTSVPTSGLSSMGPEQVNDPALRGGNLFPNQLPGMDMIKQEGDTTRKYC
Sequence of Cytochrome P450 2C9 (P11712 whole entry): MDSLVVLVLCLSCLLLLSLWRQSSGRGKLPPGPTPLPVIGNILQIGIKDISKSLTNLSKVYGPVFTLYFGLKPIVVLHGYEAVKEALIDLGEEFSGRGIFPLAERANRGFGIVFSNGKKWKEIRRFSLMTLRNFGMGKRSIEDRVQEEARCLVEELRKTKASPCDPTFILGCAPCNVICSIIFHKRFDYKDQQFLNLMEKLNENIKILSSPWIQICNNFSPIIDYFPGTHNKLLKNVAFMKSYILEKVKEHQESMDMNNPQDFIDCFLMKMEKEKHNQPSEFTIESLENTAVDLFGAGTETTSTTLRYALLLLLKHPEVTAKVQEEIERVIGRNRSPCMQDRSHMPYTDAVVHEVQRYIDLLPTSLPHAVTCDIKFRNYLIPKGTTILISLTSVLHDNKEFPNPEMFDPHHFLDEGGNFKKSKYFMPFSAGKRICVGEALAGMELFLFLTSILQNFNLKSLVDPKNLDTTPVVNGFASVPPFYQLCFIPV
Sequence of Induced myeloid leukemia cell differentiation protein Mcl-1 (Q07820 whole entry): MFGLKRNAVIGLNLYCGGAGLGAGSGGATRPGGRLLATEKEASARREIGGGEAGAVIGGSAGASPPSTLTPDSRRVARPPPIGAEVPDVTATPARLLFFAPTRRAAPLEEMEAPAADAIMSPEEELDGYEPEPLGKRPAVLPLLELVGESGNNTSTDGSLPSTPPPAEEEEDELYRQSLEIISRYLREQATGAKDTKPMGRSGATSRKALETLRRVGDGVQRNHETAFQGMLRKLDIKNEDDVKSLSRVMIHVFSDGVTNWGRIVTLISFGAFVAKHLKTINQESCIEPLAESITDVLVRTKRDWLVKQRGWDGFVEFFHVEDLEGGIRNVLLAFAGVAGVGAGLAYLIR
Sequence of Nonstructural protein 1 (Q194T2 whole entry): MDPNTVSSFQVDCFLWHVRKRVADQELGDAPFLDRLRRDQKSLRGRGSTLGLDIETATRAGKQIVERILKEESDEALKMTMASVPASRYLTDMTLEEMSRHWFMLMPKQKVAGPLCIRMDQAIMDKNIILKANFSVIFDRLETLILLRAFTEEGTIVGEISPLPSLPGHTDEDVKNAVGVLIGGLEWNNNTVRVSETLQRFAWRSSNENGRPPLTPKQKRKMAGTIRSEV

A word on the AC50: it is the concentration giving half of the maximal activity seen. Regarding `C[C@@H]1CN([C@@H](C)CO)C(=O)Cc2cc(NC(=O)CCC(F)(F)F)ccc2O[C@H]1CN(C)Cc1ccc(Oc2ccccc2)cc1`, the half-maximal activity concentration (AC50) was 41.7 µM (active) in test [1], 26.4 µM (active) in test [2] and 10.6 µM (active) in test [3].
The IC50 is the concentration needed to halve the response being measured. Consider `O=C(O)c1cccc(NCc2ccncc2)c1`, for which the half-inhibitory concentration (IC50) in [4] is > 100 µM (active).
As to `CCCCCC(=O)NC(N=C(S)NC1CCS(=O)(=O)C1)C(Cl)(Cl)Cl` (stereo not drawn), the IC50 in test [5] is > 64 µM (inactive).
The EC50 is the concentration at which the effect is half-maximal. `CCOC(=O)CNC(=O)c1sc2ncnc(N3CCc4ccccc4C3)c2c1C`: the EC50 in test [6] was > 150 µM (inactive); in test [8], 3.42 µM (active). Moreover, the AC50 in test [7] is 4.06 µM (active). The IC50 in test [9] is given as 41.7 µM (not active).
For the compound `Cc1oc(-c2ccccc2Cl)nc1CS(=O)(=O)CC(=O)NCCc1ccccc1`, the 50% effective concentration (EC50) in [10] is 2.9 µM (active); in test [13], > 29.9 µM (inactive). The figures for the 50% inhibitory concentration (IC50) in test [11] and in test [12] were 8.19 µM (active) and 18.3 µM (inactive), respectively.
Consider `O=C(Nc1ccc(N2CCCCC2)cc1)c1cncc(Br)c1`, for which the results for the AC50 in test [14] and in test [18] were 50.2 µM (active) and 14.1 µM (inconclusive), respectively. For the same compound, the EC50 in [15], in test [16] and in [17] was > 79.4 µM (not active) each time.
In the case of `CN(CCc1ccccc1)C(C(=O)c1ccc2c(c1)OCO2)c1nnnn1-c1ccccc1NC(=O)OC(C)(C)C` (stereo not drawn), the EC50 was 0.881 µM (active) in test [10] and > 29.9 µM (inactive) in test [13]. Moreover, the half-maximal inhibitory concentration (IC50) in test [11] was 3.26 µM (active); in test [12], > 29.9 µM (inactive).
For orientation: CC50 means the concentration that lowers cell viability or growth by half. As for `CN1CCC(O)(c2cccs2)C(C(=O)c2cccs2)C1` (stereo not drawn), in [19], the concentration for half-maximal inhibition (IC50) is 15.4 µM (active). Moreover, the CC50 in test [20] is > 20 µM (active).
Regarding `Cc1cc(Nc2ccccc2)n(-c2nc3ccccc3[nH]2)n1`, the IC50 in [19] was 1.07 µM (active). For the same compound, the EC50 in test [21] is 5.5 µM (active); in test [23] it was 2.16 µM (active). In addition, the results for the CC50 in test [22] and in [20] were 38 µM (active) and 18.8 µM (active), respectively.
For the compound `O=C1CN(S(=O)(=O)Cc2ccccc2)C[C@@H]2[C@@H](c3ccc(C#CC4CC4)cc3)[C@@H](CO)N12`, the half-maximal activity concentration (AC50) in test [1] was 61 µM (active); in test [24], 53.1 µM (active); in [2], 5.98 µM (active); in test [3], 4.66 µM (active).
As to `Cc1ccc2nsnc2c1S(=O)(=O)Nc1cccc2nsnc12`, in test [9], the IC50 is 6.7 µM (active).
Regarding `Cc1ccccc1NC(=O)Cn1nnc2c(cnn2-c2ccc(F)cc2)c1=O`, the IC50 in test [5] is > 64 µM (inactive).
As for `CC(C)(C)c1ccc(-c2nc(C#N)c(NCCCn3ccnc3)o2)cc1`, in [19], the IC50 was 25.4 µM (active). Besides, the CC50 in [20] is > 20 µM (active).
`O=C(CSc1nnc(CNc2ccccc2)o1)N1CCc2ccccc21`: the IC50 in test [5] was > 64 µM (inactive).
In the case of `Nc1sc2c(c1C(=O)NCCc1ccccc1)CCC2`, the figures for the concentration for a half-maximal effect (EC50) in test [10] and in [13] were 3.36 µM (active) and > 29.9 µM (inactive), respectively. The half-inhibitory concentration (IC50) in test [11] was 9.93 µM (active); in test [12] it was > 29.9 µM (inactive).
As for `CCC1=NNc2cccc3c(OC)ccc1c23`, the IC50 in [25] was 8.79 µM (not active); in [26] it was 0.586 µM (active); in [27], 0.521 µM (active); in [9] it was 2.15 µM (active).
Turning to `COc1ccc(C(=O)NCc2ccc(Cl)cc2)cc1S(=O)(=O)N1CCCC1`, the AC50 in [28] was 4.67 µM (active).
As for `CC(C)CCNC(=O)NC(=O)COC(=O)/C=C/c1cnc2ccccc2n1`, the results for the concentration for a half-maximal effect (EC50) in [15], in [16] and in test [17] were 49.5 µM (not active), 35.9 µM (not active) and 32 µM (not active), respectively.
Turning to `Clc1cccc2c3c([nH]c12)CCNC3`, the EC50 is 1.36 µM (active) in test [10] and > 29.9 µM (inactive) in test [13]. Moreover, the results for the IC50 in test [11] and in test [12] were 22.1 µM (inactive) and > 29.9 µM (inactive), respectively.
`O=C(Nc1ccc2c(c1)OCCO2)C1CCC1`: the half-inhibitory concentration (IC50) in test [4] is > 100 µM (active).
As to `CCCCn1nnc(NC(=O)c2ccc(-c3cccc(Cl)c3)o2)n1`, in test [4], the half-maximal inhibitory concentration (IC50) was > 100 µM (active). Also, the half-maximal effective concentration (EC50) in test [29] was 4.23 µM (active).
In the case of `Cc1ccc2c(c1)C1CN(C)CCC1N2S(=O)(=O)c1ccc(Oc2ccc([N+](=O)[O-])cc2)cc1` (stereo not drawn), the half-inhibitory concentration (IC50) in test [30] is > 100 µM (active).

Source of the values: ChEMBL document CHEMBL1201862, “PubChem BioAssay data set” (2004).
